SMILES strings stand for the structures.

Common to all, as to format: cell-based
The test system of one assay is E. coli. Nature of the assay: In-vitro antibacterial activity (MIC/MBC), coated 96-well plate. Particulars: 10^5 CFU/mL, 37° C., 24 h, composite as (1c+AgPTS). As for the experimental part: (§1) Chitin derivatives were first dissolved in methanol (50 mg/mL) and the solutions were serially diluted. 20 μL of the solutions of different concentrations were added into wells of a 96-well plate. The solution was first air-dried and finally dried in vacuum oven to make a film onto the flat-bottom surface of wells of 96-well plate. Each concentration was applied in triplicate for all the samples to study the antibacterial activity. In order to make films on surfaces such as microscopic glass slide, methanolic solutions of polymer (350 μL) were spin coated onto the glass surface by using a spin coater. […] To prepare thin films, mixed solutions (350 μL) obtained from the solutions of these medically relevant polymers in chloroform and methanolic solution of the chitin derivatives (CHCl3: MeOH=9:1) were spin coated onto the glass surface and dried in air. For the biodegradation study, thin films of the chitin derivatives were prepared on microscopic cover glass.
(§2) To determine the antibacterial activity of the synthesized polymers, 200 μL of 10^5 CFU/mL of bacteria were added to the wells of 96-well plate coated with the chitin derivatives with different amounts. […] The data was then subjected to sigmoidal fitting.

The test system of assay [1] is S. aureus. Described as above. Conditions: 10^5 CFU/mL, 37° C., 24 h, composite as (1c+AgPTS). As for the experimental part:
as §1, §2

Assay [2] relates to S. aureus. Nature of the assay: Antibacterial kinetics. Conditions: coated at 6×MIC; followed upto 360 min.
Procedure: A quantity of 200 μL of a solution containing approximately 4.9×10^5 CFU/mL of S. aureus in nutrient broth and 5.1×10^5 CFU/mL in Luria-Bertani (LB) broth were added, and the plates were kept in an incubated shaker at 37° C. The initial time of addition of the bacteria to the wells was taken as zero, and 10 μL aliquots were withdrawn from each of the wells at set time intervals. These aliquots were added immediately to 90 μL of 0.9% saline. These solutions were further diluted by a factor of 10, and 20 μL of all the dilutions was plated on nutrient or LB agar plates immediately. The plates were incubated at 37° C. for 24 h; and bacterial colonies were counted. A plot of CFU (Log10 CFU/mL) versus time was then plotted.
Antibacterial kinetics assay was performed similarly as mentioned earlier.

Consider `Cc1ccc(S(=O)(=O)[O-])cc1.[Ag+]` [AgPTS, silver para-toluene sulfonate], for which the MIC in the assay with E. coli was determined as 10 µg/mL; in the assay on S. aureus [1], 39 µg/mL. Also, the “Time at which S. aureus was killed” value in the assay on S. aureus [2] was “bacteriostatic”.
